Assay results: publication PMC8777946, “New Analogs of Polyamine Toxins from Spiders and Wasps: Liquid Phase Fragment Synthesis and Evaluation of Antiproliferative Activity” (Molecules, 2022)
Read-outs that look alike come from different tables or passages of the source.

Legend:
[1] = test system: MCF-7 breast cancer cells; test: Antiproliferative activity on MCF-7 breast cancer cells (24 h, cell count or MTT); assay type: cell-based; conditions: for IC50: read-out: IC50 MCF-7
Method: (§1) The antiproliferative activity of the synthesized compounds was evaluated using MCF-7 and ΜDA-MB-231 breast carcinoma cells. MCF-7 cells are characterized by epithelial morphology, low metastatic potential, and low aggressiveness, and are estrogen receptor alpha (ERα)-positive, whereas MDA-MB-231cells are characterized by mesenchymal morphology, high metastatic potential, and high aggressiveness, and are ERβ-positive. The cells were treated for 24 h with compounds 1–10 in a range of concentrations, from 0 to 200 or 400 μM. In addition, the cells were treated with acid 21 alone and an equimolar mixture of acid 21 and Spd (the PA substructure of conjugate 2), to determine the effect of conjugation on the antiproliferative activity. The estimated IC50 values for these compounds are provided in Table 1 (see also Supplementary Material, Table S1). For the sake of comparison, the ΙC50 values of PATs HO-416b and Agel 416, determined previously, are included in Table 1. Calculated LogD values at pH 7.4, the physiological pH of blood serum, using ChemAxon’s Chemicalize platform are also included in Table 1.
(§2) MCF-7 and MDA-MB-231 breast cancer cell lines were purchased from the American Type Culture Collection (ATCC). All cells were routinely cultured in a humidified 95% air/5% CO2 incubator at 37 °C in complete medium Dulbecco’s Modified Eagle’s Medium (DMEM) supplemented with 10% (v/v) fetal bovine serum (FBS) 1.0 mM sodium pyruvate, 2 mM l-glutamine, and 100 IU/mL penicillin. The synthesized compounds were dissolved in ddH2O (or DMSO for compound […] and the equimolar mixture of compounds […] and Spd) at a final concentration of 10 mM and further dilutions were conducted with culture medium.
(§3) MCF-7 and ΜDA-MB-231 breast cancer cells were seeded in 12-well plates and were allowed to grow up to 60–70% confluence. After renewing the culture medium, cancer cells were treated for 24 h in serum-containing culture medium with compounds 1–10 in a range of concentrations, from 0 to 200 or 400 μM. In addition, cells were treated with acid 21 alone and an equimolar mixture of acid 21 and Spd in order to determine the effect of conjugation on the antiproliferative activity. Then, the surviving breast cancer cells were measured, either manually (for compounds Agel 416, HO-416b, 1-3, 6-7) or by measuring the absorbance following an MTT assay (for compounds 4-5, 8-10, 21 and 21+Spd), as described below in detail. The percentage of live cells was plotted against the log values of compound concentrations, and a non-linear fit plot was used to estimate the IC50 value for each compound.

[2] = test system: MDA-MB-231 breast cancer cells; test: Antiproliferative activity on MDA-MB-231 breast cancer cells (24 h, cell count or MTT); assay type: cell-based; conditions: for IC50: read-out: IC50 MDA-MB-231; for times less cytotoxic to the MDA-MB-231 cells than the MCF-7 cells: ratio of IC50 values
Method: as §1, §2, §3

[3] = test system: MCF-7 breast cancer cells; conditions: 24 h treatment; ± SD; reference PATs, determined previously; cited from earlier work
[4] = test system: MDA-MB-231 breast cancer cells; conditions: 24 h treatment; ± SD; reference PATs, determined previously; cited from earlier work
[5] = test system: MCF-12A normal epithelial mammary cells; test: cells; assay type: cell-based; conditions: for IC50: Homo sapiens, MCF-12A, 24 h incubation, serum-free medium, MTT; for selectivity index (SI) for the MCF-7 cells: IC50 MCF-12A versus IC50 MCF-7; for selectivity index (SI) for the MDA-MB-231 cells: IC50 MCF-12A versus IC50 MDA-MB-231
Method: (§4) The IC50 values of the tested compounds are summarized in Table 2 (see also Supplementary Material, Table S2).
(§5) […]. The chemical compounds were reconstituted in DMSO.
(§6) For the MTT [3-(4,5-dimethylthiazol-2-yl)-2,5-diphenyltetrazolium bromide] assay, cells were seeded in a 96-well plate (26.000 cells/well) for 48 h. Then, after overnight starvation through serum deprivation, cells were incubated for 24 h, with the chemical compounds at 100, 10, 1, and 0.1 μM concentrations in the MCF-12A culture medium deprived of serum. Next, MTT (5 mg/mL in sterile PBS) was added in an amount of 10% in the culture media volume for 4-h cell incubation at 37 °C. Subsequently, an MTT solubilization solution was added, in an amount equal to the original culture media volume (100 μL/well), and the formazan crystals were dissolved through thorough pipetting. The spectrophotometric measure of cells’ viability was performed in a Tecan (SPARK) spectrophotometer at an absorbance wavelength of 570 nm. Incubation with H2O2 was established as cytotoxicity positive control. The percentage of viability for each sample was calculated with respect to cells incubated with MCF-12A culture media (without serum) containing 2% DMSO (negative cytotoxicity control).

[6] = in vitro; assay type: cell-based; conditions: human, 24 h, MTT, read-out: % viability of MCF 12A
Method: as §4, §5, §6

[7] = Homo sapiens, MCF7, 24 h, 24 h treatment, serum-containing medium, manual count (1-3, 6-7) or MTT (4-5, 8-10, 21, 21+Spd), ± SD, tested as trifluoroacetate salts
[8] = Homo sapiens, MDA-MB-231, 24 h, 24 h treatment, serum-containing medium, manual count (1-3, 6-7) or MTT (4-5, 8-10, 21, 21+Spd), ± SD, tested as trifluoroacetate salts
[9] = 24 h treatment, serum-containing medium, manual count (1-3, 6-7) or MTT (4-5, 8-10, 21, 21+Spd), ± SD, tested as trifluoroacetate salts

## CCCC(=O)N[C@H](C(=O)NCCCNCCCCNCCCN)[C@@H](C)O [Compound 5]
[1]; [7]
  IC50: > 400 µM
[2]; [8]
  IC50: > 400 µM

## NCCCNCCCCNCCCNCCCNC(=O)Cc1c[nH]c2ccccc12 [Agel 416]
[3]
  IC50: 0.55 ± 0.02 µM
[2]
  times less cytotoxic to the MDA-MB-231 cells than the MCF-7 cells: 6 times
[4]
  IC50: 3.31 ± 0.08 µM
[5]
  IC50: 184 µM
  selectivity index (SI) for the MCF-7 cells: ~335
  selectivity index (SI) for the MDA-MB-231 cells: ~56
[6]; 0.1 μΜ
  viability: 95.4%
[6]; 1 μΜ
  viability: 84.3%
[6]; 10 μΜ
  viability: 63.5%
[6]; 100 μΜ
  viability: 69%

## CCCC(=O)N[C@H](C(=O)NCCCCNCCCNCCCN)[C@@H](C)O [Compound 4]
[1]; [7]
  IC50: > 400 µM
[2]; [8]
  IC50: > 400 µM

## CCCC(=O)N[C@@H](Cc1ccc(O)cc1)C(=O)NCCCCNCCCCNCCCCN [Compound 7]
[1]; [7]
  IC50: > 400 µM
[2]; [8]
  IC50: > 400 µM

## NCCCNCCCCNC(=O)Cc1c[nH]c2ccccc12 [Compound 2]
[1]; [7]
  IC50: 3.15 ± 0.25 µM
[1]; MCF-7 cells
  times less active than HO-416b: 35 times
  times more active than the mere combination of 21 and Spd: ~42 times
[2]; [8]
  IC50: 12.6 ± 0.57 µM
[2]; MDA-MB-231 cells
  times less active than HO-416b: 4 times
  times more active than the mere combination of 21 and Spd: ~22 times

## CCCC(=O)N[C@@H](Cc1ccc(O)cc1)C(=O)NCCCNCCCCNCCCN [Compound 6]
[1]; Homo sapiens, MCF7, 24 h
  IC50: > 400 µM
[2]; Homo sapiens, MDA-MB-231, 24 h
  IC50: > 400 µM

## O=C(O)Cc1c[nH]c2ccccc12 [Compound 21, (indol-3-yl)acetic acid, reference compound]
[1]; [7]
  IC50: 366 ± 73 µM
[2]; [8]
  IC50: 262 ± 42 µM

## NCCCNCCCCNCCCNC(=O)Cc1c[nH]c2ccccc12 [Compound 1]
[1]; [7]
  IC50: > 200 µM
[2]; [8]
  IC50: > 200 µM

## NCCCNCCCNCCCNCCCCNC(=O)Cc1c[nH]c2ccccc12 [HO-416b]
[1]; MCF-7 cells
  times more cytotoxic than Agel 416: ~6 times
[3]
  IC50: 0.09 ± 0.012 µM
[2]
  times less cytotoxic to the MDA-MB-231 cells than the MCF-7 cells: ~44 times
[4]
  IC50: 3.98 ± 0.064 µM
[5]
  IC50: 97.2 µM
  selectivity index (SI) for the MCF-7 cells: ~1080
  selectivity index (SI) for the MDA-MB-231 cells: ~24
[5]; MCF-12A cells
  times more cytotoxic than Agel 416: ~1.9 times
[6]; 0.1 μΜ
  viability: 92.5%
[6]; 1 μΜ
  viability: 89.7%
[6]; 10 μΜ
  viability: 77.5%
[6]; 100 μΜ
  viability: 50.8%

## CCCC(=O)N[C@@H](Cc1ccc(O)cc1)C(=O)NCCCCNCCCNCCCNCCCN [Compound 8]
[1]; [7]
  IC50: > 400 µM
[2]; [8]
  IC50: > 400 µM

## C#CC[C@H](NC(=O)c1ccc(C2(C(F)(F)F)N=N2)cc1)C(=O)NCCCNCCCNCCCCN [Compound 10]
[1]; [7]
  IC50: 2.81 ± 1.64 µM
[2]; [8]
  IC50: > 200 µM

## C#CC[C@H](NC(=O)c1ccc(C2(C(F)(F)F)N=N2)cc1)C(=O)NCCCCNCCCNCCCN [Compound 9]
[1]; [7]
  IC50: 2.63 ± 1.58 µM
[2]; [8]
  IC50: > 200 µM

## NCCCCNC(=O)Cc1c[nH]c2ccccc12 [Compound 3]
[1]; [9]
  IC50: 272 ± 11.2 µM
[1]; [7]
  IC50: 272 µM
[2]; [9]
  IC50: 107 µM
[2]; [8]
  IC50: 170 µM
